What was measured:
DC-3F cells = assay: Calcium electroporation with two calcium sources, MTT assay; assay type: cell-based, Chinese hamster; details: 1 mM, 8 pulses, 0-1.6 kV/cm; MTT 1 day after treatment
Method: DC-3F cells were electroporated as described in example 1 with 1 mM calcium chloride (prepared by SAD, Denmark) or 1 mM calcium glubionate (Sandoz, Holzkirchen, Germany). The calcium concentration was chosen based on the experiment described in example 1 where 1 mM calcium is the lowest concentration inducing high cell death. The cells were electroporated with 8 pulses of […] at 1 Hz and increasing electric field (0-1.6 kV/cm). After 20 min at 37° C. and 5% CO2 cells were diluted in RPMI 1640 culture medium with 10% fetal calf serum and penicillin-streptomycin and seeded in 96-well plates at a concentration of 3.1×10^4 cells/100 μl.

[1] = system: DC-3F, K-562 and Lewis Lung Carcinoma cells; assay: In vitro electroporation, MTT viability assay; assay type: cell-based, Chinese hamster, human, murine; details: electroporated; data not shown
Method: Three cell lines are used for in vitro experiments, DC-3F, a transformed Chinese hamster lung fibroblast cell line; K-562, a human leukemia cell line; and Lewis Lung Carcinoma, a murine lung carcinoma cell line. DC-3F cells were tested for mycoplasma in January 2011, K-562 cells were tested for mycoplasma in 2008 prior to freezing and thawing just before experiments were performed, and Lewis Lung cells were tested by rapid MAP27 panel (Taconic, Hudson N.Y.) in July 2011 without signs of infection. Cells are maintained in RPMI 1640 culture medium (GIBCO™, Life Technologies, Carlsbad, Calif.) with 10% fetal calf serum (GIBCO™, Life Technologies, Carlsbad, Calif.), penicillin and streptomycin at 37° C. and 5% C02. After harvesting, cells are washed and diluted in HEPES buffer containing 10 mM HEPES (Lonza, Basel, Switzerland), 250 mM sucrose and 1 mM MgCl2 in sterile water. 270 μl cell suspension (6.1×10^6 cells/ml) and 30 μl CaCl2, or in the case of controls, HEPES buffer, are electroporated in 4 mm wide cuvettes with aluminium electrodes (Molecular BioProducts, Inc., San Diego, Calif.). Cooled cells (8° C.) are exposed to 8 pulses of 1.2 kV/cm with pulse duration of 99 μs (DC-3F and K562 cells) or 8 pulses of 1.4 kV/cm with pulse duration of 99 μs (Lewis Lung Carcinoma) using a BTX® T820 square wave electroporator (BTX®, Harvard Apparatus, Holliston, Mass.). The electroporation parameters are chosen after optimization to obtain high permabilisation and cell survival. After 20 min at 37° C. and 5% CO2 cells are diluted in RPMI 1640 culture medium with 10% fetal calf serum and penicillin-streptomycin and seeded in 96-well plates at a concentration of 3.1×10^4 cells/100 μl.
Difference between electroporated and non-electroporated cells in identical buffer is assessed using two-way analysis of variance (ANOVA) with post least-squares-means test with Bonferroni correction for multiple comparisons.

Molecule | effect of calcium electroporation on cell viability, calcium chloride versus calcium glubionate (DC-3F cells) | concentration giving a decrease in viability similar to calcium electroporation [1]
O.O=C([O-])[C@H](O)[C@@H](O)[C@H](O)[C@H](O)CO.O=C([O-])[C@H](O)[C@@H](O)[C@H](O[C@@H]1O[C@H](CO)[C@H](O)[C@H](O)[C@H]1O)[C@H](O)CO.[Ca+2] [calcium glubionate] | no difference | 
bleomycin |  | ≥ 0.1 µM

Source: US9943599B2, “Therapeutic applications of calcium electroporation to effectively induce tumor necrosis” (Herlev Hospital, priority 2011, dated 2018)
